44 molecules from patent publication US9688681B2, “Heterocyclic compounds as pest control agents” (BAYER CROPSCIENCE AKTIENGESELLSCHAFT, priority 2013, dated 2017) can be followed below.

Like-named read-outs stand apart in the source and are kept apart here.

A short description of data set [1]: log P by HPLC on reversed-phase C18 columns (OECD Guideline 117). It is filed as physicochemical. To be noted: for chromatographic logP: reversed-phase C18 HPLC column.
Data set [2] relates to green peach aphid (Myzus persicae). The data set is described as follows: Myzus persicae spray test on Chinese cabbage leaf discs. The following applies: application rate 500 g/ha, after 6 days. The class given is in vivo. An excerpt: Discs of Chinese cabbage leaves (Brassica pekinensis) infested by all stages of the green peach aphid (Myzus persicae) are sprayed with an active ingredient formulation of the desired concentration.

Where [3] appears, read: pH 2.7, HPLC RP C18, acidic range pH 2.7, 0.1% aqueous formic acid/acetonitrile, read-out: logP[a].
[4] abbreviates: pH 7.8, HPLC RP C18, neutral range pH 7.8, 0.001 molar aqueous ammonium hydrogencarbonate/acetonitrile, read-out: logP[b].
Where [5] appears, read: HPLC RP C18, acidic range pH 2.7, 0.1% aqueous formic acid/acetonitrile.
[6] abbreviates: HPLC RP C18, neutral range pH 7.8, 0.001 molar aqueous ammonium hydrogencarbonate/acetonitrile.

With `CC(C)NC(=O)c1cn(-c2cccnc2)nc1N` [IIb-1-2, 3-Amino-N-isopropyl-1-(pyridin-3-yl)-1H-pyrazole-4-carboxamide], the chromatographic logP worked out at 0.82 in data set [1] (setting [3]) and 1.05 in data set [1] (setting [4]).

`O=c1c2cnn(-c3cccnc3)c2ncn1-c1ccccc1` [compound 2]: the “logP[a]” value in data set [1] (setting [5]) was determined as 1.57. In addition, the “efficacy (aphids killed)” value in data set [2] is reported as 90%.

As for `Cn1cnc2c(cnn2-c2cncnc2)c1=O` [compound 8, 5-Methyl-1-(pyrimidin-5-yl)-1,5-dihydro-4H-pyrazolo[3,4-d]pyrimidin-4-one], the chromatographic logP in data set [1] (setting [3]) and in data set [1] (setting [4]) was 0.55 each time.

Regarding `CCOC(=O)C(C#N)=CN(N=Cc1ccccc1)c1cccnc1` [VIII-1, Ethyl 3-[2-benzylidene-1-(pyridin-3-yl)hydrazino]-2-cyanoacrylate], the chromatographic logP came out at 2.54 in data set [1] (setting [3]) and 2.48 in data set [1] (setting [4]).

For `CC(C)(C)Cn1cnc2nn(-c3cccnc3)cc2c1=O` [compound 34], the “logP[a]” value in data set [1] (setting [5]) is reported as 1.70. For the same molecule, the “logP[b]” value in data set [1] (setting [6]) worked out at 1.71. Besides, the “efficacy (aphids killed)” value in data set [2] is 100%.

Regarding `CC(c1ccccn1)n1cnc2nn(-c3cccnc3)cc2c1=O` (stereo not shown) [compound 21], the “logP[a]” value in data set [1] (setting [5]) came to 1.13. For the same molecule, in data set [1] (setting [6]), the “logP[b]” value worked out at 1.32. Further, in data set [2], the “efficacy (aphids killed)” value worked out at 90%.

Take `CCOC(=O)c1cnn(-c2ccnnc2)c1N` [IIIa-3, Ethyl 5-amino-1-pyridazin-4-yl-pyrazole-4-carboxylate]: the chromatographic logP in data set [1] (setting [3]) and in data set [1] (setting [4]) was 1.12 in each case.

`CCn1c(C(F)(F)F)nc2nn(-c3cccnc3)cc2c1=O` [compound 32, 5-Ethyl-2-(pyridin-3-yl)-6-(trifluoromethyl)-2,5-dihydro-4H-pyrazolo[3,4-d]pyrimidin-4-one]: the values for the chromatographic logP in data set [1] (setting [3]) and in data set [1] (setting [4]) were 2.07 and 2.06, respectively.

Consider `CC(C)n1nnc2nn(-c3cccnc3)cc2c1=O` [compound 36, 3-Isopropyl-6-(3-pyridyl)pyrazolo[3,4-d]triazin-4-one], for which the values for the chromatographic logP in data set [1] (setting [3]) and in data set [1] (setting [4]) were 1.72 and 1.7, respectively. Moreover, in data set [2], the “efficacy (aphids killed)” value worked out at 90%.

On to `N#CC1(n2cnc3nn(-c4cccnc4)cc3c2=O)CC1` [compound 30], for which the “logP[a]” value in data set [1] (setting [5]) stood at 0.82. For the same molecule, the “logP[b]” value in data set [1] (setting [6]) is listed as 0.85. Besides, the “efficacy (aphids killed)” value in data set [2] is 100%.

Regarding `CC(C)n1cnc2c(cnn2-c2cccnc2)c1=O` [compound 1], the “logP[a]” value in data set [1] (pH 2.7) is listed as 1.31.

As to `CCNC(=O)c1cn(-c2cccnc2)nc1N` [IIb-1-1, 3-Amino-N-ethyl-1-(pyridin-3-yl)-1H-pyrazole-4-carboxamide], the chromatographic logP was determined as 0.45 in data set [1] (setting [3]) and 0.77 in data set [1] (setting [4]).

With `CCOC(=O)Cn1cnc2nn(-c3cccnc3)cc2c1=O` [compound 19], in data set [1] (setting [5]), the “logP[a]” value is 0.98. Also, the “logP[b]” value in data set [1] (setting [6]) was determined as 1.09. In addition, the “efficacy (aphids killed)” value in data set [2] was 100%.

Turning to `O=c1c2cn(-c3cccnc3)nc2ncn1CC(F)(F)F` [compound 12], in data set [1] (setting [5]), the “logP[a]” value is 1.27. Besides, the “efficacy (aphids killed)” value in data set [2] is reported as 100%.

As for `CC(C)NC(=O)c1cn(-c2ccnnc2)nc1N` [IIb-3-1, 3-Amino-N-isopropyl-1-pyridazin-4-yl-pyrazole-4-carboxamide], the chromatographic logP in data set [1] (setting [3]) and in data set [1] (setting [4]) was 0.74 in each case.

Turning to `CCOC(=O)c1cnn(-c2cccnc2)c1N` [IIIa-1, Ethyl 5-amino-1-(pyridin-3-yl)-1H-pyrazole-4-carboxylate], in data set [1] (setting [5]), the “logP[a]” value is 1.10.

In the case of `CNC(=O)c1cnn(-c2cncnc2)c1N` [IIb-2-1, 5-Amino-N-methyl-1-(pyrimidin-5-yl)-1H-pyrazole-4-carboxamide], the chromatographic logP in data set [1] (setting [3]) was 0.18; in data set [1] (setting [4]), -0.01.

For the molecule `CCn1cnc2c(cnn2-c2cccnc2)c1=O` [compound 6, 5-Ethyl-1-(pyridin-3-yl)-1,5-dihydro-4H-pyrazolo[3,4-d]pyrimidin-4-one], the chromatographic logP in data set [1] (setting [3]) was found to be 0.98; in data set [1] (setting [4]), 1.15.

Regarding `CC(F)(F)Cn1cnc2nn(-c3cccnc3)cc2c1=O` [compound 24], the “logP[a]” value in data set [1] (setting [5]) came out at 1.19. Besides, the “logP[b]” value in data set [1] (setting [6]) is on record as 1.21. Moreover, the “efficacy (aphids killed)” value in data set [2] was 100%.

For `O=c1c2cn(-c3ccccc3)nc2ncn1Cc1ncccn1` [compound 11], in data set [1] (setting [5]), the “logP[a]” value is 0.63. Further, the “efficacy (aphids killed)” value in data set [2] came out at 100%.

With `CCOC(=O)c1cn(-c2cncnc2)nc1N` [IIIb-2, ethyl 3-amino-1-(pyrimidin-5-yl)-1H-pyrazole-4-carboxylate], the chromatographic logP in data set [1] (setting [3]) amounted to 1.12; in data set [1] (setting [4]) it was 1.08.

`CCNC(=O)c1cnn(-c2cccnc2)c1N` [IIa-1-1, 5-Amino-N-ethyl-1-(pyridin-3-yl)-1H-pyrazole-4-carboxamide]: the chromatographic logP in data set [1] (setting [3]) was 0.5; in data set [1] (setting [4]), 0.56.

In the case of `O=c1c2cn(-c3cccnc3)nc2ncn1C1CC1` [compound 23], the “logP[a]” value in data set [1] (setting [5]) is 0.79. Also, in data set [1] (setting [6]), the “logP[b]” value was found to be 0.83. Moreover, in data set [2], the “efficacy (aphids killed)” value worked out at 100%.

`CC(C)n1cnc2nn(-c3cccnc3)cc2c1=O` [compound 15, 5-Isopropyl-2-(pyridin-3-yl)-2,5-dihydro-4H-pyrazolo[3,4-d]pyrimidin-4-one]: the chromatographic logP is 1.06 in data set [1] (setting [3]) and 1.12 in data set [1] (setting [4]). In addition, the “efficacy (aphids killed)” value in data set [2] is given as 100%.

Take `Cc1ccc(-n2cnc3nn(-c4cccnc4)cc3c2=O)cc1` [compound 39]: the “logP[a]” value in data set [1] (setting [5]) came to 1.73. Further, in data set [1] (setting [6]), the “logP[b]” value amounted to 1.73. Moreover, the “efficacy (aphids killed)” value in data set [2] came out at 100%.

In the case of `C(=NNc1cccnc1)c1ccccc1` [VII-1, Benzaldehyde pyridin-3-yl hydrazone], the chromatographic logP in data set [1] (setting [3]) amounted to 0.86; in data set [1] (setting [4]), 2.22.

With `CCn1c(C)nc2nn(-c3cccnc3)cc2c1=O` [compound 29, 5-Ethyl-6-methyl-2-(pyridin-3-yl)-2,5-dihydro-4H-pyrazolo[3,4-d]pyrimidin-4-one], the chromatographic logP was determined as 0.93 in data set [1] (setting [3]) and 1.03 in data set [1] (setting [4]). For the same molecule, the “efficacy (aphids killed)” value in data set [2] is listed as 90%.

Turning to `Cc1nc2nn(-c3cccnc3)cc2c(=O)n1C(C)C` [compound 28], in data set [1] (setting [5]), the “logP[a]” value worked out at 1.28. For the same molecule, the “logP[b]” value in data set [1] (setting [6]) was 1.35. The “efficacy (aphids killed)” value in data set [2] was determined as 90%.

For the molecule `O=c1c2cn(-c3cccnc3)nc2ncn1CC1CC1` [compound 33], the “logP[a]” value in data set [1] (setting [5]) amounted to 1.23. The “logP[b]” value in data set [1] (setting [6]) is 1.27. Also, the “efficacy (aphids killed)” value in data set [2] was determined as 100%.

On to `CC(C)n1cnc2nn(-c3ccnnc3)cc2c1=O` [compound 38, 5-Isopropyl-2-pyridazin-4-yl-pyrazolo[3,4-d]pyrimidin-4-one], for which the chromatographic logP in data set [1] (setting [3]) and in data set [1] (setting [4]) was 0.85 each time. In addition, the “efficacy (aphids killed)” value in data set [2] stood at 90%.

With `CCOC(=O)c1cnn(-c2cccnc2)c1N` [(IIIa-1). HCOOH, ethyl 5-amino-1-(pyridin-3-yl)-1H-pyrazole-4-carboxylate], the chromatographic logP amounted to 1.18 in data set [1] (setting [3]) and 1.27 in data set [1] (setting [4]).

Consider `CCOC(=O)c1cnn(-c2cncnc2)c1N` [IIIa-2, Ethyl 5-amino-1-(pyrimidin-5-yl)-1H-pyrazole-4-carboxylate], for which the results for the chromatographic logP in data set [1] (setting [3]) and in data set [1] (setting [4]) were 1.16 and 1.12, respectively.

As for `O=c1c2cn(-c3cccnc3)nc2ncn1CC1CCCO1` (stereo not shown) [compound 17], the “logP[a]” value in data set [1] (setting [5]) stood at 1.07. The “logP[b]” value in data set [1] (setting [6]) is 1.12. Besides, the “efficacy (aphids killed)” value in data set [2] stood at 100%.

As to `Cn1cnc2c(cnn2-c2cccnc2)c1=O` [compound 7], in data set [1] (pH 2.7), the “logP[a]” value is 0.58. For the same molecule, the “logP[b]” value in data set [1] (pH 7.8) was found to be 0.82.

Take `O=c1c2cnn(-c3cccnc3)c2ncn1-c1ccc(Cl)cc1` [compound 4]: the “logP[a]” value in data set [1] (setting [5]) worked out at 2.04. The “efficacy (aphids killed)” value in data set [2] is 90%.

For the molecule `CCn1cnc2nn(-c3cccnc3)cc2c1=O` [compound 9], the “logP[a]” value in data set [1] (setting [5]) is reported as 0.80.

Turning to `Cn1cnc2nn(-c3cccnc3)cc2c1=O` [compound 18], the “logP[a]” value in data set [1] (setting [5]) is given as 0.45. Further, the “logP[b]” value in data set [1] (setting [6]) came to 0.52. For the same molecule, in data set [2], the “efficacy (aphids killed)” value came to 100%.

With `O=c1c2cn(-c3cccnc3)nc2ncn1CC(F)F` [compound 25], the “logP[a]” value in data set [1] (setting [5]) is 0.91. Further, the “logP[b]” value in data set [1] (setting [6]) turned out to be 0.96. In addition, the “efficacy (aphids killed)” value in data set [2] was 100%.

Consider `O=c1c2cn(-c3cccnc3)nc2ncn1-c1ccccc1` [compound 10], for which the “logP[a]” value in data set [1] (setting [5]) turned out to be 1.40. In data set [2], the “efficacy (aphids killed)” value was 90%.

In the case of `O=c1c2cnn(-c3cccnc3)c2ncn1Cc1ncccn1` [compound 5], the “logP[a]” value in data set [1] (pH 2.7) was 0.80. Also, the “logP[b]” value in data set [1] (pH 7.8) was 0.91. Moreover, in data set [2], the “efficacy (aphids killed)” value worked out at 90%.

Take `O=c1c2cnn(-c3cccnc3)c2ncn1CC(F)(F)F` [compound 3]: the “logP[a]” value in data set [1] (pH 2.7) was 1.48. Further, in data set [2], the “efficacy (aphids killed)” value came out at 100%.

As for `CCOC(=O)c1cn(-c2cccnc2)nc1N` [IIIb-1, Ethyl 3-amino-1-(pyridin-3-yl)-1H-pyrazole-4-carboxylate], the chromatographic logP came out at 1.12 in data set [1] (setting [3]) and 1.32 in data set [1] (setting [4]).

For the molecule `CCOC(=O)c1cn(-c2ccnnc2)nc1N` [IIIb-3, ethyl 3-amino-1-pyridazin-4-yl-pyrazole-4-carboxylate], the chromatographic logP in data set [1] (setting [3]) came out at 0.9; in data set [1] (setting [4]), 0.94.

On to `CCn1cnc2nn(-c3cccnc3)cc2c1=O` [compound 16, 5-Ethyl-2-(pyridin-3-yl)-2,5-dihydro-4H-pyrazolo[3,4-d]pyrimidin-4-one], for which the chromatographic logP in data set [1] (setting [3]) worked out at 0.7; in data set [1] (setting [4]), 0.84. Further, the “efficacy (aphids killed)” value in data set [2] worked out at 100%.
